Reference: the NIST ThermoML archive (doi:10.1021/je800231f)
“And” between values parts separate entries of the source, which are not always exact repeats. Equal entries are not always repeated.

Conditions: Crystal

[F-].[F-].[Hg+2] [mercuric difluoride]
Conditions	vapor or sublimation pressure
457 K	0.00015 kPa
464 K	0.00018 kPa
466 K	0.00024 kPa
469 K	0.0003 kPa
473 K	0.00024 kPa
474 K	0.00042 kPa
475 K	0.00036 kPa
480 K	0.00048 kPa
481 K	0.00066 kPa and 0.00042 kPa
483 K	0.00051 kPa and 0.00054 kPa
487 K	0.0006 kPa
488 K	0.00089 kPa
490 K	0.00076 kPa and 0.00078 kPa
492 K	0.00078 kPa
493 K	0.00091 kPa
494 K	0.00089 kPa
496 K	0.00115 kPa and 0.00095 kPa and 0.00107 kPa
498 K	0.00135 kPa and 0.00107 kPa
499 K	0.00112 kPa
502 K	0.00162 kPa and 0.00132 kPa
503 K	0.00151 kPa
504 K	0.00178 kPa
505 K	0.00174 kPa
507 K	0.00162 kPa and 0.00186 kPa
510 K	0.00209 kPa
511 K	0.00245 kPa
512 K	0.00224 kPa
513 K	0.00288 kPa and 0.00245 kPa
514 K	0.00229 kPa
515 K	0.00257 kPa
516 K	0.00347 kPa
518 K	0.00363 kPa
520 K	0.00324 kPa
521 K	0.00398 kPa and 0.00339 kPa
523 K	0.00331 kPa
525 K	0.00437 kPa and 0.00363 kPa
526 K	0.00479 kPa
527 K	0.00437 kPa and 0.00457 kPa
528 K	0.00457 kPa
529 K	0.0055 kPa
533 K	0.00575 kPa
535 K	0.00759 kPa and 0.00617 kPa
537 K	0.00759 kPa
539 K	0.00646 kPa
542 K	0.00871 kPa
543 K	0.01047 kPa and 0.00871 kPa
544 K	0.01072 kPa
549 K	0.00933 kPa
551 K	0.01318 kPa and 0.01175 kPa
552 K	0.01445 kPa
555 K	0.0138 kPa
557 K	0.0166 kPa and 0.01318 kPa
560 K	0.01862 kPa and 0.01698 kPa
561 K	0.01622 kPa
565 K	0.02188 kPa
568 K	0.02455 kPa
570 K	0.02042 kPa
580 K	0.02951 kPa
589 K	0.04074 kPa

[F][Hg].[F][Hg] [mercury fluoride (Hg2F2)]
Conditions	vapor or sublimation pressure
496 K	2.3e-05 kPa
503 K	3.4e-05 kPa
508 K	5.8e-05 kPa
509 K	4.6e-05 kPa
515 K	7.9e-05 kPa
516 K	6.8e-05 kPa
520 K	0.000102 kPa
524 K	0.000138 kPa
526 K	0.000138 kPa
531 K	0.000204 kPa
533 K	0.000229 kPa
536 K	0.000288 kPa and 0.000214 kPa and 0.000229 kPa
539 K	0.000275 kPa
542 K	0.000389 kPa
543 K	0.000324 kPa
544 K	0.000407 kPa
545 K	0.000437 kPa
546 K	0.000501 kPa and 0.000363 kPa
547 K	0.000437 kPa
548 K	0.000501 kPa
549 K	0.000457 kPa
552 K	0.000589 kPa
553 K	0.00055 kPa
554 K	0.000871 kPa and 0.000646 kPa and 0.000575 kPa
556 K	0.000676 kPa
557 K	0.000794 kPa and 0.000724 kPa
559 K	0.000871 kPa and 0.000724 kPa and 0.000851 kPa
560 K	0.000794 kPa
562 K	0.001 kPa and 0.000912 kPa
563 K	0.001 kPa
564 K	0.001288 kPa and 0.001 kPa
565 K	0.001148 kPa and 0.001259 kPa
567 K	0.001259 kPa
569 K	0.00123 kPa
571 K	0.001585 kPa
572 K	0.001585 kPa and 0.001445 kPa
573 K	0.002138 kPa and 0.001549 kPa and 0.001349 kPa
574 K	0.001585 kPa
576 K	0.002042 kPa
577 K	0.002399 kPa
578 K	0.00195 kPa and 0.002089 kPa and 0.001905 kPa
579 K	0.002089 kPa
580 K	0.002089 kPa
582 K	0.003162 kPa
583 K	0.002089 kPa
584 K	0.003236 kPa and 0.002512 kPa
585 K	0.002692 kPa and 0.002818 kPa
586 K	0.002884 kPa
588 K	0.003236 kPa and 0.003162 kPa
589 K	0.00309 kPa
590 K	0.003548 kPa
591 K	0.004571 kPa
592 K	0.004467 kPa
593 K	0.003631 kPa
594 K	0.004467 kPa
595 K	0.004365 kPa
596 K	0.004571 kPa and 0.004365 kPa
599 K	0.006026 kPa and 0.004786 kPa
600 K	0.006918 kPa and 0.00537 kPa
601 K	0.005754 kPa
605 K	0.007762 kPa and 0.006457 kPa and 0.006761 kPa
606 K	0.006918 kPa [middle of 4 runs]
609 K	0.00955 kPa
611 K	0.008128 kPa and 0.00955 kPa and 0.007413 kPa
614 K	0.01 kPa and 0.00871 kPa
615 K	0.01 kPa
616 K	0.01259 kPa and 0.01072 kPa and 0.01097 kPa
617 K	0.01148 kPa
618 K	0.0123 kPa
619 K	0.01023 kPa
622 K	0.0138 kPa and 0.0123 kPa
623 K	0.01514 kPa
624 K	0.01738 kPa
625 K	0.01862 kPa
626 K	0.0138 kPa
628 K	0.01549 kPa
629 K	0.0195 kPa
